Source: US8853172B2, “Anti-plant-virus agent” (National University Corporation Hokkaido University, priority 2009, dated 2014)

Experiments:
Type in all cases: in vivo
Turnip mosaic virus [1] = experiment: Experiment III: therapeutic test, spraying after inoculation of Arabidopsis thaliana with Turnip mosaic virus (inoculation solution C); conditions: Arabidopsis thaliana (Columbia), ten columns inoculated, 20 mM sprayed on days 1, 4, 7 and 10 after inoculation, observed on the 16th day
Protocol: A nonionic surfactant (polyoxyethylene sorbitan monolaurate) and a spreading agent (Approach BI: manufactured by Kao Corporation) were dissolved in N,N-dimethylformamide. This solution was added to water to obtain an aqueous solution comprising 0.05% of a nonionic surfactant, 0.1% of a spreading agent, and 1% of N,N-dimethylformamide.
(§1) Two expanded leaves per one column of Arabidopsis thaliana (Columbia) were inoculated with the virus via the aforementioned virus inoculation solution C by the carborundum method.
On the 1st day, the 4th day, the 7th day and the 10th day after the date of the virus inoculation, the aforementioned aqueous solution was sprayed thereon.
On the 16th day after the date of the virus inoculation, the presence or absence of disease symptoms such as yellow mosaic of new leaves, leaf curling, plant stunting was observed.
(§2) Ascorbic acid 6-palmitate, a nonionic surfactant (polyoxyethylene sorbitan monolaurate) and a spreading agent (Approach BI: manufactured by Kao Corporation) were dissolved in N,N-dimethylformamide. This solution was added to water to obtain an aqueous solution of the anti-plant virus agent comprising 20 mM ascorbic acid 6-palmitate, 0.05% of a nonionic surfactant, 0.1% of a spreading agent, and 1% of N,N-dimethylformamide.
Except that the aqueous solution of the anti-plant virus agent was sprayed onto Arabidopsis thaliana instead of the aforementioned aqueous solution, in the same manner as Comparative Example 6, Turnip mosaic virus was inoculated onto Arabidopsis thaliana, and then the onset of the symptoms was examined.

[2] = system: Tomato aspermy virus (V strain); experiment: Experiment IV: spraying of tomato (cultivar Beiju) inoculated with Tomato aspermy virus (V strain); conditions: four columns inoculated, 2 mM sprayed every day for two weeks from inoculation, observed on the 30th day
Protocol: The frozen tobacco (Nicotiana benthamiana) infected with Tomato aspermy virus (V strain) was triturated in 0.1M phosphate-buffer solution at a 10-fold amount (containing 10 mM DIECA), and was filtered through a double gauze and the filtrate was defined as virus inoculation solution D. Onto fully expanded leaves of the seedling stage of tomato (cultivar: Beiju) after a period of two weeks from seeding, the virus inoculation solution D was inoculated by physical application via the carborundum method.
After the virus inoculation, as a result of examination of disease symptoms over time, mosaic or leaf curling could be recognized after the 5th day, and lethal necrosis symptoms were shown after the period of two weeks, and all of the five columns inoculated with Tomato aspermy virus (V strain) withered.
200 mM of ascorbic acid 6-palmitate was dissolved in N,N-dimethylformamide. This solution was diluted 100 times with distilled water to obtain an aqueous solution of the anti-plant virus agent comprising 2 mM ascorbic acid 6-palmitate and 1% of N,N-dimethylformamide. In the same manner as Comparative Example 7, the tomato was inoculated with tomato aspermy virus (V strain). During the two weeks from the date of virus inoculation, the aforementioned aqueous solution was sprayed thereon every day, and disease symptoms were examined over time. […]

Turnip mosaic virus [3] = experiment: Experiment I: spraying before and after inoculation of Arabidopsis thaliana with Turnip mosaic virus (inoculation solution A), onset of symptoms; conditions: for columns that showed symptoms / columns that were healthy: Arabidopsis thaliana (Columbia), seven columns inoculated, 20 mM sprayed on days 3 and 1 before and 1, 3, 5, 8, 10 after inoculation, observed on the 14th day
Protocol: (§3) Each of the frozen tobacco leaves infected with Turnip mosaic virus and Cucumber mosaic virus (Y strain) was triturated in 0.1M phosphate-buffer solution at a 10-fold amount (containing 10 mM diethyldithiocarbamic acid (DIECA)). These were defined as virus inoculation solutions A and B. These virus inoculation solutions A and B are solutions causing a 100% incidence.
(§4) Three expanded leaves per one column of Arabidopsis thaliana (Columbia) were inoculated with each virus via the aforementioned virus inoculation solutions A and B by the carborundum method.
(§5) On the 3rd day and the 1st day prior to the date of the virus inoculation, and on the 1st day, the 3rd day, the 5th day, the 8th day and the 10th days after the date of the virus inoculation, an aqueous solution of 0.1% of a spreading agent (Approach BI: manufactured by Kao Corporation) was sprayed thereon.
(§6) On the 14th day after the virus inoculation, the presence or absence of disease symptoms such as yellow mosaic of new leaves, leaf curling, and plant stunting was observed. […] It can be seen that the above virus inoculation solutions A and B are strong solutions in view of the fact that the inoculation with the solutions reliably causes the onset of symptoms.
(§7) Each was dissolved in water so as to be 20 mM ascorbic acid and 0.1% of a spreading agent (Approach BI: manufactured by Kao Corporation), thereby obtaining an aqueous solution of ascorbic acid. Except that the aqueous solution of ascorbic acid was sprayed onto Arabidopsis thaliana instead of the aqueous solution of the spreading agent, in the same manner as Comparative Example 1, Turnip mosaic virus and Cucumber mosaic virus (Y strain) were inoculated onto Arabidopsis thaliana, and then the onset of symptoms was examined.
as §2, with “of N,N-dimethylformamide. Except that the aqueous solution of the anti-plant virus agent was sprayed thereon instead of the aqueous solution of ascorbic acid, in the same manner as Comparative Example 2, Turnip mosaic virus and Cucumber mosaic virus (Y strain) were inoculated onto Arabidopsis thaliana, and then the onset of symptoms was examined.” for “of N,N-dimethylformamide.”
Each was added to water so as to be 20 mM ascorbic acid 2-phosphate ester 3-sodium and 0.1% of a spreading agent (Approach BI: manufactured by Kao Corporation), thereby obtaining an aqueous solution of the anti-plant virus agent. Except that the aqueous solution of the anti-plant virus agent was sprayed thereon instead of the aqueous solution of ascorbic acid, in the same manner as Comparative Example 2, Turnip mosaic virus was inoculated onto Arabidopsis thaliana, and then the onset of symptoms was examined.

[4] = system: Cucumber mosaic virus (Y strain); experiment: Experiment I: spraying before and after inoculation of Arabidopsis thaliana with Cucumber mosaic virus (Y strain) (inoculation solution B), onset of symptoms; conditions: Arabidopsis thaliana (Columbia), seven columns inoculated, 20 mM sprayed on days 3 and 1 before and 1, 3, 5, 8, 10 after inoculation, observed on the 14th day
Protocol: as §3, §4, §5, §6, §7
Ascorbic acid 6-palmitate, a nonionic surfactant (polyoxyethylene sorbitan monolaurate) and a spreading agent (Approach BI: manufactured by Kao Corporation) were dissolved in N,N-dimethylformamide. […]

Turnip mosaic virus [5] = experiment: Experiment II: preventive test, spraying before inoculation of Arabidopsis thaliana with Turnip mosaic virus (inoculation solution C); conditions: for columns that were healthy / columns that showed symptoms: Arabidopsis thaliana (Columbia), ten columns inoculated, 20 mM sprayed on the 3rd and 1st day before inoculation, observed on the 16th day
Protocol: The frozen tobacco leaves infected with Turnip mosaic virus were triturated in 0.1M phosphate-buffer solution at a 10-fold amount (containing 10 mM DIECA). Then, this was diluted 50 times with the same buffer solution. This was defined as virus inoculation solution C.
as §1
On the 3rd day and the 1st day prior to the date of the virus inoculation, an aqueous solution of 0.1% a spreading agent (Approach BI: manufactured by Kao Corporation) was sprayed thereon.
On the 16th day after the date of the virus inoculation, the presence or absence of disease symptoms such as yellow mosaic of new leaves, leaf curling, and plant stunting was observed.
as §7, with “3,” for “1,”, “was” for “and Cucumber mosaic virus (Y strain) were”

| SMILES | columns that showed symptoms (Turnip mosaic virus [1]) | columns that were healthy (Turnip mosaic virus [1]) | columns that showed symptoms (Turnip mosaic virus [3]) | columns that were healthy (Turnip mosaic virus [5]) | columns that showed symptoms (Turnip mosaic virus [5]) | also measured |
| --- | --- | --- | --- | --- | --- | --- |
| CCCCCCCCCCCCCCCCCC(=O)OC[C@H](O)[C@H]1OC(=O)C(O)=C1O [ascorbic acid 6-stearate] | one | nine | – | – | – | – |
| CCCCCCCCC(CCCCCC)C(=O)OCC(OC(=O)C(CCCCCC)CCCCCCCC)C1OC(=O)C(OC(=O)C(CCCCCC)CCCCCCCC)=C1OC(=O)C(CCCCCC)CCCCCCCC (stereo not drawn) [ascorbyl 2,3,5,6-tetrahexyldecanoate] | one | nine | – | – | – | – |
| CCCCCCCCCCCCCCCC(=O)OC[C@H](O)[C@H]1OC(=O)C(O)=C1O [ascorbic acid 6-palmitate] | one | nine | five | – | – | columns that were healthy [2]: two; columns that withered [2]: two; columns that were healthy (Turnip mosaic virus [3]): two; columns that showed symptoms [4]: five; columns that were healthy [4]: two |
| CCCCCCCCCCCCCCCC(=O)OC[C@H](O)[C@H]1OC(=O)C(OC(=O)CCCCCCCCCCCCCCC)=C1O [ascorbic acid 2,6-dipalmitate] | one | nine | – | – | – | – |
| O=C1O[C@H]([C@@H](O)CO)C([O-])=C1OP(=O)([O-])[O-].[Na+].[Na+].[Na+] [ascorbic acid 2-phosphate ester 3-sodium] | – | – | five | ten | – | columns that were healthy (Turnip mosaic virus [3]): two |
| O=C1O[C@H]([C@@H](O)CO)C(O)=C1O[C@H]1O[C@H](CO)[C@@H](O)[C@H](O)[C@H]1O [ascorbic acid 2-glucoside] | – | – | – | nine | one | – |
| O=C1O[C@H]([C@@H](O)CO)C([O-])=C1O.[Na+] [sodium ascorbate] | – | – | – | seven | three | – |
| O=C1O[C@H]([C@@H](O)CO)C(O)=C1O [ascorbic acid, reference compound] | – | – | seven | eight | two | anti-plant viral activity (conclusion in words) (Turnip mosaic virus [3]; Experiment I, 20 mM spray): does not have any anti-plant viral activity; anti-plant viral activity / preventive effect (conclusion in words) (Turnip mosaic virus [5]; Experiment II, 20 mM sprayed before inoculation): do not have any anti-plant viral activity; columns that showed symptoms [4]: seven |
